Results as given in patent publication US20070134744A1, “Epothilone resistant cell lines” (priority 2000, published 2007).

Biological target: T1, tubulin in 297/C5/0 cells (Homo sapiens, UniProt P07437, T274P)
T1 construct: endogenous in cells; host or cells: 297/C5/0 and 298/D4/40 sublines of KB-31 (intact cells or hypotonic lysates)
Experiment: Cell-based tubulin polymerization assay
Conditions: 2 hours, 0-1000 nM, vs KB-31
Method: Drug-induced changes in the ratios between unpolymerized and polymerized tubulin in intact and lysed cells, respectively, are assessed basically as described (Giannakakou et al, Int. J. Cancer 75: 57-63 (1998)). Briefly, for the assessment of cellular drug effects, 2×10^5 cells are seeded in a volume of 1 ml to maximally 6 wells per 24-well plate. After incubation for 18-24 hrs at 37° C. to allow for cell attachment, test substances are added to the cell culture medium to achieve the desired concentrations, followed by incubation of the cells for 2 hrs at 37° C. Final vehicle concentration is 1%. One plate at a time is then transferred to a dimmed tissue-culture hood and cells are washed twice with 1 ml of room-temperature phosphate-buffered saline lacking Ca^++ and Mg^++ (PBS/O). After careful removal of remaining PBS/O, 100 μl of room-temperature Hypotonic Lysis Buffer A (HLB/A: 20 mM Tris-HCl (pH 6.8), 1 mM Mg2Cl, 2 mM EGTA, 2 mM Pefabloc, 1 mM benzamidine, 10 μg/ml aprotinin, 10 μg/ml leupeptin, 0.5% Nonidet P-40) is added and plates are wrapped in aluminum foil to minimize artifacts due to light-driven tubulin polymerization. Following incubation for exactly 5 min at 37° C., cells are harvested by scraping and transferred to a room-temperature eppendorf tube. Harvested wells are washed once with 100 μl room temperature HLB/A and pooled with the corresponding initial samples. Tubes are vortexed for 5 seconds to aid cell lysis, followed by centrifugation for 10 min at room-temperature in a table-top centrifuge at 12′000×g to separate microtubules (pellet) from unpolymerized tubulin (supernatant). The supernatant is then carefully transferred to a fresh eppendorf tube and stored on ice until further processed. Meanwhile, the pelleted material is resuspended in 200 μl room-temperature Resuspension Buffer (RSB: 10 mM Tris-HCl (pH 7.5), 1.5 mM Mg2Cl, 2 mM EGTA, 1 mM Pefabloc, 1 mM benzamidine, 10 μg/ml aprotinin, 10 μg/ml leupeptin, 0.5% Nonidet P-40). Solubilization of the pellet is aided by placing the eppendorf tube for 30 seconds in a sonicator waterbath. […]

T1 sequence (P07437 whole entry T274P): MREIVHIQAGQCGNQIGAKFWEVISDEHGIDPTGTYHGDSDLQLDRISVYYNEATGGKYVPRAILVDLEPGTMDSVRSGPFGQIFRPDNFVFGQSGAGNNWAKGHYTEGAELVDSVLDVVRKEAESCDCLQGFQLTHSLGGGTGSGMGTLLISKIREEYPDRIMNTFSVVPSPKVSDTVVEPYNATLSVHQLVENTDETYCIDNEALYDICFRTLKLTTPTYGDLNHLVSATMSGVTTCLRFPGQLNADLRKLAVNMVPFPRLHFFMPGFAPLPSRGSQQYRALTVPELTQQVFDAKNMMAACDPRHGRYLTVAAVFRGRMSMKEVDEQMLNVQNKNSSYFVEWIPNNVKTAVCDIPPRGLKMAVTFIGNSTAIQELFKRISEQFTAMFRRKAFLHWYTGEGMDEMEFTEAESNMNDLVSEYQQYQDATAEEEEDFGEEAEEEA
T1 sequence (P68363 whole entry partner): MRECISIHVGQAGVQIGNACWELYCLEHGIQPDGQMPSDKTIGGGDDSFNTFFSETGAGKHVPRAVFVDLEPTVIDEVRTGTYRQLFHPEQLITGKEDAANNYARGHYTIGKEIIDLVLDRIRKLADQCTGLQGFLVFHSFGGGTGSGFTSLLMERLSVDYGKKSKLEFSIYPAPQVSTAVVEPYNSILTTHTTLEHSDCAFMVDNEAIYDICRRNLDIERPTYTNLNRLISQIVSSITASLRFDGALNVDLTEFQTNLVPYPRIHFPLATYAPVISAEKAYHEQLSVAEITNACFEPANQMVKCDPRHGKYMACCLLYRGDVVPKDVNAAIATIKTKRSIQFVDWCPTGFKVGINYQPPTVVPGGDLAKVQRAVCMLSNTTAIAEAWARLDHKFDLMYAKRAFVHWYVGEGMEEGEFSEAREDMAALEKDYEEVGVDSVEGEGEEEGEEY

SMILES: C/C(=C\c1csc(C)n1)[C@@H]1C[C@@H]2O[C@@H]2CCC[C@H](C)[C@H](O)[C@@H](C)C(=O)C(C)(C)[C@@H](O)CC(=O)O1 [Epothilone A, epothilone A]
- drug concentrations required to decrease the unpolymerized tubulin fraction: significantly higher
